Test results: US11401253B2, “16-methyl-oxacyclohexadecan-2-one and 16-methyl-azacyclohexadecan-2-one derivatives as antimicrobial agents” (THE UNIVERSITY OF MONTANA, priority 2017, dated 2022)
Converted amounts (≈) assume the structure as drawn. “And” between values parts separate entries of the source, which are not always exact repeats. Equal entries are not always repeated. “Also recorded” adds a separate entry of the source.

Assays:
[1] = test system: Staphylococcus aureus (13709); assay: Antibiotic testing (MIC), S. aureus 13709; type: cell-based; conditions: growth inhibition ≥90% relative to drug-free controls, read-out: minimum inhibitory concentration, Staphylococcus aureus (13709)
Streptococcus pyogenes = assay: Antibiotic testing (MIC), Streptococcus pyogenes; type: cell-based; conditions: growth inhibition ≥90%, read-out: minimum inhibitory concentration, Streptococcus pyogenes
Candida glabrata = assay: Antibiotic testing (MIC), Candida glabrata; type: cell-based; conditions: Nakaseomyces glabratus; growth inhibition ≥90%; read-out: minimum inhibitory concentration, Candida glabrata
Bacillus subtilis = assay: Antibiotic testing (MIC), Bacillus subtilis; type: cell-based; conditions: growth inhibition ≥90%, read-out: minimum inhibitory concentration, Bacillus subtilis
C. albicans = assay: Antibiotic testing (MIC), C. albicans; type: cell-based; conditions: Candida albicans; growth inhibition ≥90%; read-out: minimum inhibitory concentration, C. albicans
B. anthracis = assay: microbe, parasite or virus in culture; type: cell-based; conditions: Bacillus anthracis, read-out: minimum inhibitory concentration, B. anthracis
Enterococcus faecalis = assay: Antibiotic testing (MIC), Enterococcus faecalis; type: cell-based; conditions: growth inhibition ≥90%, read-out: minimum inhibitory concentration, Enterococcus faecalis
S. aureus CAIRD116 = assay: Antibiotic testing, methicillin-resistant S. aureus CAIRD116; type: cell-based; conditions: Staphylococcus aureus, CAIRD116; methicillin-resistant strain
From the text: (§1) Both the methyl ester and the diacetate derivatives of BPL 76 slightly less but still very strong activity against the same four MRSA strains (Table 11). The activities of compounds BPL 76 and BPL 81 were compared to several known antibiotics against three methicillin-resistant strains of S. aureus [FIG. 6, comparative data provided by Hartford Hospital, Center for Anti-Infective Research and Development (CAIRD)].

S. aureus CAIRD142 = assay: Antibiotic testing, methicillin-resistant S. aureus CAIRD142; type: cell-based; conditions: Staphylococcus aureus, CAIRD142; methicillin-resistant strain
From the text: as §1

S. aureus CAIRD148 = assay: Antibiotic testing, methicillin-resistant S. aureus CAIRD148; type: cell-based; conditions: Staphylococcus aureus, CAIRD148; methicillin-resistant strain
From the text: as §1

K. pneumoniae (10031) = assay: Antibiotic testing (MIC), gram negative K. pneumoniae; type: cell-based
Procedure: (§2) None of this collection of compounds were active against Gram-negative bacteria
(§3) Additionally, BPL 76 and derivatives were tested against a panel of gram negative bacteria including K. pneumonia, P. aeruginosa and E. coli (Table 12).

P. aeruginosa = assay: Antibiotic testing (MIC), gram negative P. aeruginosa; type: cell-based; conditions: Pseudomonas aeruginosa; read-out: MIC, P. aeruginosa
Procedure: as §2, §3

E. coli (25922) = assay: Antibiotic testing (MIC), gram negative E. coli; type: cell-based
Procedure: as §2, §3

[2] = test system: non-replicating persistence Mycobacterium tuberculosis (NRP-TB); assay: Low oxygen recovery assay (LORA), non-replicating persistence Mtb; type: cell-based; conditions: non-replicating persistence, hypoxic conditions
Vero cell = assay: Cytotoxicity (MTS), Vero cells; type: cell-based, monkey; conditions: Primates, 72 hours exposure
HepG2 = assay: Cytotoxicity (MTS), HepG2 cells; type: cell-based; conditions: Homo sapiens, 72 hours exposure
J774 = assay: Cytotoxicity (MTS), J774 cells; type: cell-based, murine; conditions: Mus musculus, 72 hours exposure
[3] = test system: primary human peripheral blood mononuclear cells (PBMCs); assay: Cell death in primary PBMCs; type: cell-based; conditions: highest concentration tested, 500 μg/ml
Procedure: Additionally the BPL76 compound was tested against primary human peripheral blood mononuclear cells (PBMCs) and induced very little cell death, with only up to 60% death induced at the highest concentration tested, 500 μg/ml (not shown).

GFP synthesis = assay: Cell-free translation assay with GFP reporter; type: biochemical; conditions: 50 μM and 250 μM, 37° C., readings for 2 hr
Procedure: Further assessment of the effect of BPL76 on protein translation was done using a cell-free translation assay. The plasmid pY71-sfGFP^55 (5 ng) was translated in the PUREexpress in vitro protein synthesis system (New England Biolabs). The final concentrations of erythromycin, josamycin and tylosin in the translation reactions were 50 μM. The reactions were incubated at 37° C. and fluorescence readings (excitation: 488 nm, emission, 520 nm) were taken every 20 min for 2 hr.

Gram-positive bacteria = assay: Antibiotic panel, Gram-positive bacteria; type: cell-based; conditions: 1 μM-1 mM/well
From the text: as §2

[4] = Bactericidal activity (therapeutic index statement); type: cell-based
[5] = test system: Vero, HepG2 and J774 cells; assay: Cytotoxicity, mammalian cell lines (summary statement); type: cell-based
Procedure: Cytotoxicity for Vero, HepG2 and J774 cells were determined following 72 hours exposure to BPL76 and analogs. Cell viability was assessed on the basis of cellular conversion of MTS dye into a soluble formazan product using the Promega CellTiter 96 Aqueous Non-Radioactive Cell Proliferation Assay. After incubation at 37° C. for 72 h, medium was removed and monolayers were washed twice with 100 μl of warm Hanks' balanced salt solution (HBSS). One hundred microliters of warm medium and 20 μl of freshly made MTS-PMS [3-(4,5-dimethylthiazol-2-yl)-5-(3-carboxymethoxyphenyl)-2-(4-sulfophenyl)-2H-tetrazolium and […]](100:20) (Promega) were added to each well, plates were incubated for 3 h, and absorbance was determined at 490 nm. Viability was assessed on the basis of cellular conversion of MTS dye into a soluble formazan product using the Promega CellTiter 96 Aqueous Non-Radioactive Cell Proliferation Assay as described in Falzari K, Zhu Z, Pan D, Liu H, Hongmanee P, et al. (2005). In vitro and in vivo activities of macrolide derivatives against Mycobacterium tuberculosis were determined as described in Ekins, S, Reynolds, R C, Franzblau, S G, et al. Enhancing Hit Identification in Mycobacterium tuberculosis Drug Discovery Using Validated Dual-Event Bayesian Models PLOS ONE (2013) 8:5, e63240. […]

[6] = test system: Mycobacterium tuberculosis
[7] = test system: Mycobacterium tuberculosis; assay: microbe, parasite or virus in culture; conditions: read-out: MIC, MABA

C[C@@H]1CCCCCCCCC[C@H](O)C(=O)C[C@@H](SC[C@@H](O)C(=O)O)C(=O)O1 [BPL 76, (S)-2-hydroxy-3-(((3R,6S,16R)-6-hydroxy-16-methyl-2,5-dioxooxacyclohexadecan-3-yl)thio)propanoic acid]
MIC [1]: 1 µg/mL (≈ 2.47 µM)
MIC (Streptococcus pyogenes): 3 µg/mL (≈ 7.42 µM)
MIC (Candida glabrata): 6 µg/mL (≈ 14.8 µM)
MIC (Bacillus subtilis): 13 µg/mL (≈ 32.1 µM)
MIC (C. albicans): 26 µg/mL (≈ 64.3 µM)
MIC (B. anthracis): 3 µg/mL (≈ 7.42 µM)
MIC (Enterococcus faecalis): 13 µg/mL (≈ 32.1 µM)
MIC (S. aureus CAIRD116): 1 µg/mL (≈ 2.47 µM)
MIC (S. aureus CAIRD142): 2 µg/mL (≈ 4.94 µM)
MIC (S. aureus CAIRD148): 1 µg/mL (≈ 2.47 µM)
activity against K. pneumonia (in words) (K. pneumoniae (10031)): weakly active
MIC (K. pneumoniae (10031); Klebsiella pneumoniae, read-out: MIC, K. pneumoniae (10031)): 1000 µM and 405 µg/mL
MIC (P. aeruginosa): > 1000 µM
activity against E. coli (in words) (E. coli (25922)): weakly active
MIC (E. coli (25922); Escherichia coli, read-out: MIC, E. coli (25922)): 1000 µM and 405 µg/mL
MIC ([2]; Mycobacterium tuberculosis, read-out: MIC, LORA): 24 µg/mL (≈ 59.3 µM)
MIC, LORA [2]: ~24 µg/mL (≈ 59.3 µM)
IC50 (Vero cell): 61.5 µg/mL (≈ 152 µM)
IC50 (HepG2): 64.8 µg/mL (≈ 160 µM)
IC50 (J774): 16.8 µg/mL (≈ 41.5 µM)
cell death induced in PBMCs [3]: up to 60%
effect on GFP synthesis and corresponding fluorescence (GFP synthesis): no effect at either concentration; also recorded: lack of inhibition
activity against Gram-positive bacteria (Gram-positive bacteria): strongest activity
efficacious concentration to induce bactericidal activity [4]: ~1 µg/mL
mammalian toxicity concentration [5]: ~60 µg/mL
MIC, MABA [6]: ~25 µg/mL (≈ 61.8 µM)
fold less active against Mtb than against MRSA [6]: 25 fold
times less potent than rifampicin against Mtb [6]: 100 ×
MIC [7]: 25 µg/mL (≈ 61.8 µM)
